Consider two compounds from PMC7719162, “Positioning of an unprecedented spiro[5.5]undeca ring system into kinase inhibitor space” (Scientific Reports, 2020).

One assay concerns the target T1, GSK3b (Homo sapiens, UniProt P49841).
T1 construct: purchased Reaction Biology Corp
Put plainly: Kinase panel assay (radiolabelled). In kind it is biochemical.

In the next assay the target is TRKA-TPM3 (Homo sapiens, UniProt P04629). Put plainly: Kinase panel assay (radiolabelled). It counts as biochemical. Particulars: 30 μM compound, ATP 10 μM, duplicates Data 1/Data 2.
Another assay concerns the target T2, EIF2AK3 (Homo sapiens, UniProt Q9NZJ5).
T2 construct: purchased Reaction Biology Corp
Briefly: Kinase panel assay (radiolabelled). In kind it is biochemical. The following applies: 30 μM compound, ATP 10 μM, duplicates Data 1/Data 2.

A further assay has as its target T3, SPHK1 (Homo sapiens, UniProt Q9NYA1).
T3 construct: purchased Reaction Biology Corp
Briefly: Kinase panel assay (lipid kinase). Particulars: 30 μM compound, ATP 10 μM, duplicates Data 1/Data 2. In kind it is biochemical.

The target in the next assay is T4, PI3K (p110a(E545K)/p85a) (Homo sapiens, UniProt P42336, E545K).
T4 construct: purchased Reaction Biology Corp
Put plainly: Kinase panel assay (lipid kinase). Particulars: 30 μM compound, ATP 10 μM, duplicates Data 1/Data 2. In kind it is biochemical.

Another assay deals with T5, JNK1 (Homo sapiens, UniProt P45983).
T5 construct: purchased Reaction Biology Corp
Briefly: Kinase panel assay (radiolabelled). In kind it is biochemical. The following applies: ATP 10 μM.

Another assay deals with T6, ZIPK/DAPK3 (Homo sapiens, UniProt O43293).
T6 construct: purchased Reaction Biology Corp
Put plainly: Kinase panel assay (radiolabelled). In kind it is biochemical. Particulars: ATP 10 μM.

In a further assay the target is T7, TRKC (L686M) (Homo sapiens, UniProt Q16288, L686M).
T7 construct: purchased Reaction Biology Corp
Briefly: Kinase panel assay (radiolabelled). In kind it is biochemical. Particulars: 30 μM compound, ATP 10 μM, duplicates Data 1/Data 2.

The target in assay [1] is T8, PKN2/PRK2 (Homo sapiens, UniProt Q16513).
T8 construct: purchased Reaction Biology Corp
Briefly: Kinase panel assay (radiolabelled). In kind it is biochemical. The following applies: ATP 10 μM.

In assay [2] the test system is NO production in LPS-activated BV-2 cells. Put plainly: NO production assay (Griess) in LPS-activated BV-2 cells. It counts as cell-based, murine. The following applies: read-out: NO Inhibition IC50. The method, then:
3-(4,5-dimethylthiazol-2-yl)-2,5-diphenyl-tetrazolium bromide (MTT) assay was performed to evaluate the cytotoxicity of the samples to the microglia. BV2 cells at the density of 4 × 10^4 cells /well were seeded in the 96 well plate and incubated for 24 h. Seeded cells were pre-treated with different concentration of the samples, and LPS (100 ng/ml) activation was performed after 30 min of compound treatment. Treated plate were incubated for 24 h in the incubator and nitric oxide assay and cell viability assay was performed. Treated cell’s conditioned medium was used to evaluate the NO assay, and the attached cells were used to evaluate the cell viability assay. 50 µL of conditioned medium (CM) from treated cells were transferred to a new 96 well plate for NO assay. This CM was mixed with the equal volume of the mixture of Gries reagent ((1% sulfanilamide and 0.1% N-1-napthylethylenediamine dihydrochloride). NaNO2 was used as standard and the colorimetric change were evidenced by measuring its OD at 540 nm in a microplate reader. The cells in the plate were incubated for 1 h with MTT solution making it the final concentration of […]. Blue stained cells were incubated with 200 ul of DMSO and the solution get changed to purple/formazan color and it was observed by measuring the absorbance at 570 nm in a microplate reader.NG-mono-methyl-L-arginine (L-NMMA), a well-known nitric oxide synthase (NOS) inhibitor, was used as a positive control.

Assay [3] concerns the target T9, PI3K (p110a(H1047R)/p85a) (Homo sapiens, UniProt P42336, H1047R).
T9 construct: purchased Reaction Biology Corp
Put plainly: Kinase panel assay (lipid kinase). The following applies: 30 μM compound, ATP 10 μM, duplicates Data 1/Data 2. In kind it is biochemical.

The target in another assay is T10, CDK1/cyclin B (Homo sapiens, UniProt P06493).
T10 construct: purchased Reaction Biology Corp
Put plainly: Kinase panel assay (radiolabelled). In kind it is biochemical. The following applies: ATP 10 μM.

In assay [4] the target is T11, AMPK(A1/B1/G2) (Homo sapiens, UniProt Q13131+Q9UGJ0+Q9Y478).
T11 construct: purchased Reaction Biology Corp
Briefly: Kinase panel assay (radiolabelled). Particulars: 30 μM compound, ATP 10 μM; duplicates Data 1/Data 2; read-out: % Enzyme Activity (relative to DMSO controls). In kind it is biochemical.

For assay [5], the target named is T12, AMPK(A1/B1/G2) (Homo sapiens, UniProt Q13131).
T12 construct: purchased Reaction Biology Corp
Briefly: Kinase panel assay (radiolabelled). It counts as biochemical. The following applies: 30 μM compound, ATP 10 μM; duplicates Data 1/Data 2.

In another assay the target is T13, PKCa (Homo sapiens, UniProt P17252).
T13 construct: purchased Reaction Biology Corp
The following applies: cited from earlier work.

The next assay concerns the target T14, DAPK2 (Homo sapiens, UniProt Q9UIK4).
T14 construct: purchased Reaction Biology Corp
The following applies: cited from earlier work.

For assay [6], the target named is T8, PKN2/PRK2. The following applies: cited from earlier work.
The next assay concerns the target T15, RIPK5 (Homo sapiens, UniProt Q6XUX3).
T15 construct: purchased Reaction Biology Corp
T15 sequence (Q6XUX3 1-929): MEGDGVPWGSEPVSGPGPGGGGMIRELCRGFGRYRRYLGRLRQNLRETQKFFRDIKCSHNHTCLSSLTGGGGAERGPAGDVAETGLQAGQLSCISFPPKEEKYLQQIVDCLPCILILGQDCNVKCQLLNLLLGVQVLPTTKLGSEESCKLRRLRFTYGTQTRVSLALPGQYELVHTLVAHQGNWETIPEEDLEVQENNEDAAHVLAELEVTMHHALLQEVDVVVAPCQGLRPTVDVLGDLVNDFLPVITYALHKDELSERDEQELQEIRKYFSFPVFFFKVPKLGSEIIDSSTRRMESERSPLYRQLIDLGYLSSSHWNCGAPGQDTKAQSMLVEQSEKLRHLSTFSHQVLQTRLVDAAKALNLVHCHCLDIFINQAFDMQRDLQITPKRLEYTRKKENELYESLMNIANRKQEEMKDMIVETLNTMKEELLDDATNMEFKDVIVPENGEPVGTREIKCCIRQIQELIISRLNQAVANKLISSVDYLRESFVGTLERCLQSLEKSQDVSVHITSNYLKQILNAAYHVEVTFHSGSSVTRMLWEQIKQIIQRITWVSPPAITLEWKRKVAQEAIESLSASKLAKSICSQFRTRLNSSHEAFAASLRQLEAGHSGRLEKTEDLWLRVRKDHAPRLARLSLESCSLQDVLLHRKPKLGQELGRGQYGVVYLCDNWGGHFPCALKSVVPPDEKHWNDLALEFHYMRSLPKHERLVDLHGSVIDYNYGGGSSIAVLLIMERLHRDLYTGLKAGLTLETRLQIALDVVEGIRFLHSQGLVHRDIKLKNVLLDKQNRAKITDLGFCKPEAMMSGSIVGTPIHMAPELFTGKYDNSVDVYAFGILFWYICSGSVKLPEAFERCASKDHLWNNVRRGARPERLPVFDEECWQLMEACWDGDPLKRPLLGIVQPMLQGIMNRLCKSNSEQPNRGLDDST
The following applies: cited from earlier work.

Setting [7] is: read-out: % Enzyme Activity (relative to DMSO controls).
[8] abbreviates: 30 μM compound, duplicates Data 1/Data 2.
The mark [9] stands for this setting: 30 μM compound, duplicates Data 1/Data 2, read-out: % Enzyme Activity (relative to DMSO controls).
[10] abbreviates: 30 μM, average ± SD, read-out: % Residual Activity at 30 μM.

The structures appear in SMILES notation. Where two headings read alike, the source gives them in different places.

T1 sequence (P49841 whole entry): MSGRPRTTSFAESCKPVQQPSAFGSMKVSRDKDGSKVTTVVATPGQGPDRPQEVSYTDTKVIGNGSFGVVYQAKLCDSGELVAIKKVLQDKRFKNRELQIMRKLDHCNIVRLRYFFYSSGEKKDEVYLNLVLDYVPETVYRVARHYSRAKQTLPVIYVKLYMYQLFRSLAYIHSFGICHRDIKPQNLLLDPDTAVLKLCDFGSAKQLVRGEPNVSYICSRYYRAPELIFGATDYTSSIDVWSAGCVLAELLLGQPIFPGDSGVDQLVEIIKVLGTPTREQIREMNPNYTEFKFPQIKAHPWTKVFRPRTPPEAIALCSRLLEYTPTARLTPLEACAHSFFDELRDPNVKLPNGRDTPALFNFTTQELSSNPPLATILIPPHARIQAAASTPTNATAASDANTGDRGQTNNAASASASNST
T6 sequence (O43293 whole entry): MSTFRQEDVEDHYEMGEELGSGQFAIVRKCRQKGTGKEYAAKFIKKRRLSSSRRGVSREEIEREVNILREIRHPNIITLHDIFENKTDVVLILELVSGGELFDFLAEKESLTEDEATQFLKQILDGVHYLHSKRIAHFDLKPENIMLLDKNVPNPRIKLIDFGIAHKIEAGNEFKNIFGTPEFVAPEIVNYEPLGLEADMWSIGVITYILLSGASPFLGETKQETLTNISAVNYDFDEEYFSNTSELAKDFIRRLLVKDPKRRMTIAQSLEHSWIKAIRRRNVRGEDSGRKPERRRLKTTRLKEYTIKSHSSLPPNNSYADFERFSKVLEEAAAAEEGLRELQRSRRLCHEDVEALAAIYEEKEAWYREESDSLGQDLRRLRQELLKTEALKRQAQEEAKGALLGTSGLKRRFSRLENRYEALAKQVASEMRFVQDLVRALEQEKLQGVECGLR
T8 sequence (Q16513 whole entry): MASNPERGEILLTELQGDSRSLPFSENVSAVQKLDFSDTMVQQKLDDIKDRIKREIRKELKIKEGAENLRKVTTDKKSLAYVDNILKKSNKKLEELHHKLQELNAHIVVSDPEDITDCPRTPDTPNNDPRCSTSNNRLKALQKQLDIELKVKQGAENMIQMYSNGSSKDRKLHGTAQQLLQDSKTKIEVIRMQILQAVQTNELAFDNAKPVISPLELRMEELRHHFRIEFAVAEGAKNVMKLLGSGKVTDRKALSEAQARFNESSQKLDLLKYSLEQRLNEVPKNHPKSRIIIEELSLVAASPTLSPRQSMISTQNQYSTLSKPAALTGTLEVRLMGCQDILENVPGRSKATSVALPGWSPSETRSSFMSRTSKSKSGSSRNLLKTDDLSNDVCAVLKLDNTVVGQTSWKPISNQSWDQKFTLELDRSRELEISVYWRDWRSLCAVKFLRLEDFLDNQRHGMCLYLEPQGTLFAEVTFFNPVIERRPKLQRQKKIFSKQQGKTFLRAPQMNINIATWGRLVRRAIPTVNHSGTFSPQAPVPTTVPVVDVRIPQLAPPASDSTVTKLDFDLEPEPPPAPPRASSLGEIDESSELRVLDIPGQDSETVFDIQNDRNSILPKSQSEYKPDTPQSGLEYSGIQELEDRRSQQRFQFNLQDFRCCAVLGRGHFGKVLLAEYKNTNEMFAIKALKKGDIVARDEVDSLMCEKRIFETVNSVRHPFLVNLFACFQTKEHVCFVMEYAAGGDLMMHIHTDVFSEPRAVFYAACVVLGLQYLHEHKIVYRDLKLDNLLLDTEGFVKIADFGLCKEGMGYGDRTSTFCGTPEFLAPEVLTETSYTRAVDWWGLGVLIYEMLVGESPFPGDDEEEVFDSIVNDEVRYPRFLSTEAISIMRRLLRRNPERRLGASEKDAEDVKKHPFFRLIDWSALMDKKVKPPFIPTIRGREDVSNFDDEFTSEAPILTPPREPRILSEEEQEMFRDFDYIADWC
T5 sequence (P45983 whole entry): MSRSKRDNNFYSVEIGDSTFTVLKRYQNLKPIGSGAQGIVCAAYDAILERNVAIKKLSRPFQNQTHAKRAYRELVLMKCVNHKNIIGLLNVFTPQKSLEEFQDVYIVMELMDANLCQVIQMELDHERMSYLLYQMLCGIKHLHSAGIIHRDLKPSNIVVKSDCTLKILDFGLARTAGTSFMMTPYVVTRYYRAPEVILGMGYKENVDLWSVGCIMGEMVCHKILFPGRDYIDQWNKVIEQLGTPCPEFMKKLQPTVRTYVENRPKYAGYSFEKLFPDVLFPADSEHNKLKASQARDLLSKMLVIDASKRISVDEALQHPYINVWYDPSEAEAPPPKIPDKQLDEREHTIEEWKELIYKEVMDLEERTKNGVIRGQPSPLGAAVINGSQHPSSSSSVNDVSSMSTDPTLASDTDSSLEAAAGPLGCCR
T10 sequence (P06493 whole entry): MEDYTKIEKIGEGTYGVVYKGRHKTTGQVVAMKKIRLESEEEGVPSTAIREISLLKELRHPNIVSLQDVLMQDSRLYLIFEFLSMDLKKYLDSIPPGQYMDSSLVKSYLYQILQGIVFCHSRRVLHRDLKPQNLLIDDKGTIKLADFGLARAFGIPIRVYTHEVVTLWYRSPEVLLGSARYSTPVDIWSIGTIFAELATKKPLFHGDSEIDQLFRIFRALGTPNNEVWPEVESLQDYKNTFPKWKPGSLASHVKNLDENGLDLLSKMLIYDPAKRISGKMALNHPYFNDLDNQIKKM
T10 sequence (P14635 whole entry partner): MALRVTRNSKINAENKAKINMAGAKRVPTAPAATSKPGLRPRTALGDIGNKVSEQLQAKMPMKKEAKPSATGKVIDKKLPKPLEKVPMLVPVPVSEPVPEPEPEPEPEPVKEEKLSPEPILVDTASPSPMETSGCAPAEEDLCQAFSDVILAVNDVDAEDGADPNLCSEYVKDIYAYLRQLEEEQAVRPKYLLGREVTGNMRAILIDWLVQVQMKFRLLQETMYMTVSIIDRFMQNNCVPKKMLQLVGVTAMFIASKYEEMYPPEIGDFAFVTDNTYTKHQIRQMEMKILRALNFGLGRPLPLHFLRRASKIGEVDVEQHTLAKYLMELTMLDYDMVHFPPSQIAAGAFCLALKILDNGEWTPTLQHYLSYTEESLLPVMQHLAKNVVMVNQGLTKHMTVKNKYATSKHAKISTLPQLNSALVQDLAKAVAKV
T2 sequence (Q9NZJ5 30-1116): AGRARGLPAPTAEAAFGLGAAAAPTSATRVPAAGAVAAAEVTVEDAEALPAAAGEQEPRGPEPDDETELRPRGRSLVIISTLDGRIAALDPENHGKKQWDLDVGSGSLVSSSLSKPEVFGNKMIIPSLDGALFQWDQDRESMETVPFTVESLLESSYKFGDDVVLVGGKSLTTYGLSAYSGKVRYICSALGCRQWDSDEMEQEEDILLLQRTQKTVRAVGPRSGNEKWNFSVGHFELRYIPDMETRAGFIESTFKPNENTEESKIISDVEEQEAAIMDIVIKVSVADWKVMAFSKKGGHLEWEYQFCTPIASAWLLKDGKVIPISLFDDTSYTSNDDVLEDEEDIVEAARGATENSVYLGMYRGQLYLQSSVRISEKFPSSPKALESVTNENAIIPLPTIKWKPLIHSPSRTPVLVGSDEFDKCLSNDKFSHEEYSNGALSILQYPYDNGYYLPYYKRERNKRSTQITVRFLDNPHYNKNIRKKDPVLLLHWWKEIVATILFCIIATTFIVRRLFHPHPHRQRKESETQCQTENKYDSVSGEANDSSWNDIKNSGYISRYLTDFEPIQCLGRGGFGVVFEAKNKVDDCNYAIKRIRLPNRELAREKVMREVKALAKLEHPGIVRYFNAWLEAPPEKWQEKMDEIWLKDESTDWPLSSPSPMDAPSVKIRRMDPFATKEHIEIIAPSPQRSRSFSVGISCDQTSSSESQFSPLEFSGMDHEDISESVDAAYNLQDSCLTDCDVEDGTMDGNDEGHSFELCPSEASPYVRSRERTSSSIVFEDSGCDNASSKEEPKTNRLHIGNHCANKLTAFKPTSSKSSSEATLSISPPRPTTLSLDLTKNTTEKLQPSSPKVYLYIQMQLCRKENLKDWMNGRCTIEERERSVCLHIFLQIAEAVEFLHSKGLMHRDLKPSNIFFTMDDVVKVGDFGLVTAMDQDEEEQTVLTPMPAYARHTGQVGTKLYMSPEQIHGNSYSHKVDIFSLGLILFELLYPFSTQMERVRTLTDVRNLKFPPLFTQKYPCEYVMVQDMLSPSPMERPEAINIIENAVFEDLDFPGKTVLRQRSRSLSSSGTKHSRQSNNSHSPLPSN
Chain of TRKA-TPM3 (P04629 399-796): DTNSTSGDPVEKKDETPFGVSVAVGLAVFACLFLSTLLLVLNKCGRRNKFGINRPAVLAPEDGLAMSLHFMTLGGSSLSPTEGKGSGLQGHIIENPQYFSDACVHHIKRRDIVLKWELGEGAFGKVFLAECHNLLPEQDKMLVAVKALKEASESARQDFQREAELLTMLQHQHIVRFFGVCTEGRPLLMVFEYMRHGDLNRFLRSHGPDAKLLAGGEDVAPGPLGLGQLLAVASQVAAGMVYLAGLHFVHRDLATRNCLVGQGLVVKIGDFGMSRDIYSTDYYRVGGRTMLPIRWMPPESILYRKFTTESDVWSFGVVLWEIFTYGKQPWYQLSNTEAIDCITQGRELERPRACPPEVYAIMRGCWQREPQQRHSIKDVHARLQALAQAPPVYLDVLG
Chain of TRKA-TPM3 (P06753 2-258 partner): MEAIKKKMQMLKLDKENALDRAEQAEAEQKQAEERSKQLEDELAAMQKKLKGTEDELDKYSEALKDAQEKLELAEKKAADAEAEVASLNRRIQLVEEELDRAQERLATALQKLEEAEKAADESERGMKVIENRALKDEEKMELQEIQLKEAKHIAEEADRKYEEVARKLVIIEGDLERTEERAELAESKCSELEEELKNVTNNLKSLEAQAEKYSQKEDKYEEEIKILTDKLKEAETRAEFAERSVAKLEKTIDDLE

For `O=C1C=CC2(C=C1)OCC(Cc1cn(-c3cccc(Cl)c3)nn1)C(=O)N2c1ccccc1` (stereo not drawn) [2d, 3-((1-(3-Chlorophenyl)-1H-1,2,3-triazol-4-yl)methyl)-5-phenyl-1-oxa-5-azaspiro[5.5]undeca-7,10-diene-4,9-dione], the “% Enzyme Activity (relative to DMSO controls)” value amounted to 1.64% at GSK3b (30 μM compound, ATP 10 μM, duplicates Data 1/Data 2); 95.56% on TRKA-TPM3; 70.64% on EIF2AK3; 77.68% on SPHK1; 206.92% on PI3K (p110a(E545K)/p85a); 82.67% on JNK1 (setting [8]). Moreover, the “% Enzyme Activity (relative to DMSO controls)” value is on record as 86.95% at ZIPK/DAPK3 (setting [8]); 106.77% at TRKC (L686M); 97.21% on PKN2/PRK2 [1] (setting [8]); 131.08% in assay [3]; 58.64% on CDK1/cyclin B (setting [8]); 66.48% on AMPK(A1/B1/G2) [5]. Also, the remaining activity at 30 µM at GSK3b (30 μM compound, ATP 10 μM, duplicates Data 1/Data 2, read-out: % Enzyme Activity (relative to DMSO controls)) stood at 2.81%; on GSK3b (30 μM, ATP 10 μM, average ± SD, read-out: % Residual Activity at 30 μM), 2.2 ± 0.8%; at TRKA-TPM3 (setting [7]), 98.2%; on EIF2AK3 (setting [7]), 70.8%; at SPHK1 (setting [7]), 80.5%; on PI3K (p110a(E545K)/p85a) (setting [7]), 206%. The remaining activity at 30 µM is 82.7% at JNK1 (setting [9]); 82.7 ± 0.1% on JNK1 (setting [10]); 88.8% on ZIPK/DAPK3 (setting [9]); 87.9 ± 1.3% on ZIPK/DAPK3 (setting [10]); 107% at TRKC (L686M) (setting [7]); 102% at PKN2/PRK2 [1] (setting [9]). Also, the remaining activity at 30 µM on PKN2/PRK2 [1] (setting [10]) worked out at 99.5 ± 3.3%; in [3] (setting [7]) it was 132%; on CDK1/cyclin B (setting [9]), 59.3%; at CDK1/cyclin B (setting [10]), 59 ± 0.5%; on AMPK(A1/B1/G2) [4] it was 68%. Moreover, on GSK3b (30 μM, read-out: inhibition of GSK-3β in 70-kinase panel), the inhibition at 30 µM is > 90%. Besides, the IC50 in assay [2] (Mus musculus) is 660 nM.
In the case of `O=C1C=CC2(C=C1)OCC(Cc1cc(C(F)(F)F)cc(C(F)(F)F)c1)C(=O)N2c1ccccc1` (racemic) [1c], the “% Residual Activity at 30 μM” value at PKCa is 45.6 ± 1.2%; on DAPK2 it was 120.1 ± 0.6%; at PKN2/PRK2 [6] it was 63.5 ± 1.8%; on RIPK5 it was 59.3 ± 1.0%. In addition, the 50% inhibitory concentration (IC50) in assay [2] was 70 ± 10 nM.

The term inhibition denotes the share of the control response that was lost under treatment. What is called IC50 is the midpoint of a concentration-inhibition curve.
